# Laboratory results taken from PMC8037182, “Solvothermal Synthesis of Multiple Dihydropyrimidinones at a Time as Inhibitors of Eg5” (Molecules, 2021).
# Test system: Caco-2 cell line
# Test: Cytotoxicity MTS assay, Caco-2 cell line
# Assay type: cell-based
# Conditions: for OD490 Mean / OD490 Well 1 / OD490 Well 2 / OD490 Well 3: Caco-2 cell line
# Summary of the method: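 MTS read-out (absorbance 490 nm after 2 h reagent at 37 °C) following 24 h compound exposure at 0.5–100 µM final, 0.025% DMSO as blank. Plated at 1000 cells/well and pre-incubated 24 h; IC50 derived by non-linear regression of viability against concentration, from three independent duplicate runs.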
smiles,measurement,setting,value
COC(=O)c1[nH]c(C2NC(=S)NC(C)=C2C(=O)c2ccccc2)c(C(=O)OC)c1C (stereo not drawn) [D14],OD490 Mean,"0.5μM, first assay",0.5996
same,OD490 Well 1,"0.5μM, first assay",0.5553
same,OD490 Well 2,"0.5μM, first assay",0.5560
same,OD490 Well 3,"0.5μM, first assay",0.6875
same,OD490 Mean,"0.5μM, second assay",0.6725
same,OD490 Well 1,"0.5μM, second assay",0.6506
same,OD490 Well 2,"0.5μM, second assay",0.6879
same,OD490 Well 3,"0.5μM, second assay",0.6791
same,OD490 Mean,"0.5μM, third assay",0.6452
same,OD490 Well 1,"0.5μM, third assay",0.6120
same,OD490 Well 2,"0.5μM, third assay",0.6285
same,OD490 Well 3,"0.5μM, third assay",0.6952
same,OD490 Mean,"1μM, second assay",0.6718
same,OD490 Well 1,"1μM, second assay",0.6251
same,OD490 Well 2,"1μM, second assay",0.6916
same,OD490 Well 3,"1μM, second assay",0.6987
same,OD490 Mean,"1μM, third assay",0.6246
same,OD490 Well 1,"1μM, third assay",0.6324
same,OD490 Well 2,"1μM, third assay",0.6014
same,OD490 Well 3,"1μM, third assay",0.6401
same,OD490 Mean,"10μM, first assay",0.6223
same,OD490 Well 1,"10μM, first assay",0.6178
same,OD490 Well 2,"10μM, first assay",0.6082
same,OD490 Well 3,"10μM, first assay",0.6409
same,OD490 Mean,"10μM, second assay",0.6139
same,OD490 Well 1,"10μM, second assay",0.6136
same,OD490 Well 2,"10μM, second assay",0.6117
same,OD490 Well 3,"10μM, second assay",0.6164
same,OD490 Mean,"10μM, third assay",0.6241
same,OD490 Well 1,"10μM, third assay",0.5987
same,OD490 Well 2,"10μM, third assay",0.6312
same,OD490 Well 3,"10μM, third assay",0.6424
same,OD490 Mean,"25μM, first assay",0.5939
same,OD490 Well 1,"25μM, first assay",0.5396
same,OD490 Well 2,"25μM, first assay",0.5578
same,OD490 Well 3,"25μM, first assay",0.6844
same,OD490 Mean,"25μM, second assay",0.5279
same,OD490 Well 1,"25μM, second assay",0.4988
same,OD490 Well 2,"25μM, second assay",0.5384
same,OD490 Well 3,"25μM, second assay",0.5466
same,OD490 Mean,"25μM, third assay",0.5570
same,OD490 Well 1,"25μM, third assay",0.5324
same,OD490 Well 2,"25μM, third assay",0.5784
same,OD490 Well 3,"25μM, third assay",0.5601
same,OD490 Mean,"50μM, first assay",0.5128
same,OD490 Well 1,"50μM, first assay",0.5310
same,OD490 Well 2,"50μM, first assay",0.5192
same,OD490 Well 3,"50μM, first assay",0.4883
same,OD490 Mean,"50μM, second assay",0.5200
same,OD490 Well 1,"50μM, second assay",0.5229
same,OD490 Well 2,"50μM, second assay",0.564
same,OD490 Well 3,"50μM, second assay",0.4732
same,OD490 Mean,"50μM, third assay",0.4713
same,OD490 Well 1,"50μM, third assay",0.4985
same,OD490 Well 2,"50μM, third assay",0.4532
same,OD490 Well 3,"50μM, third assay",0.4621
same,OD490 Mean,"100μM, first assay",0.4642
same,OD490 Well 1,"100μM, first assay",0.4537
same,OD490 Well 2,"100μM, first assay",0.4965
same,OD490 Well 3,"100μM, first assay",0.4424
same,OD490 Mean,"100μM, second assay",0.4817
same,OD490 Well 1,"100μM, second assay",0.4326
same,OD490 Well 2,"100μM, second assay",0.5246
same,OD490 Well 3,"100μM, second assay",0.4878
same,OD490 Mean,"100μM, third assay",0.4653
same,OD490 Well 1,"100μM, third assay",0.4632
same,OD490 Well 2,"100μM, third assay",0.4397
same,OD490 Well 3,"100μM, third assay",0.4930
same,IC50,"MTS assay, 24 h exposure",103 µM
